For assay [1], the system named is human neutrophils (PMNLs). As to the kind of experiment: Binding and uptake of FAM-labeled ODNs by neutrophils (flow cytometry). Type of assay: cell-based. Particulars: 1 µM LRR11, 0.15 µM FPS-ZM1; n = 3; Figure 7. The protocol:
Figure 6 The LRR11 peptide affects the binding and uptake of ODNs by neutrophilic granulocytes. PMNLs (1 × 10^6/mL) in HBSS/HEPES were incubated for 20 min at 37 °C in 5% CO2 with 1 µM FAM-labeled ODN, supplemented or not with 1 µM LRR11 peptide. Both the total ODN accumulation (red) and its intracellular constituent (black) were analyzed by flow cytometry. Surface fluorescence was quenched by trypan blue (TB) solution. Values represent the means ± SEM of FAM fluorescence intensities (RFU, relative fluorescence units) (n = 8). ** p < 0.01; *** p < 0.005, **** p < 0.001 for specified data pairs, as indicated by two-way ANOVA followed by Tukey’s multiple comparison test. Mean fluorescence intensities of unstained PMNLs were 62 ± 12 and 39 ± 5.6 without or after TB quenching, respectively.
Figure 7 RAGE antagonist effect on oligonucleotide penetration into neutrophil cells. […] Both total oligonucleotide accumulation (A) and its intracellular constituent (B) were analyzed by flow cytometry. The surface fluorescence was quenched by trypan blue solution. Values represent the means ± SEM of FAM fluorescence intensities (RFU) (n = 3). * p < 0.05; […]; *** p < 0.005 for the pair of data specified, as indicated by two-way ANOVA followed by Tukey’s multiple comparison test. Fluorescence intensities of unstained controls were 62 ± 14 and 49 ± 6 without, or after TB quenching, respectively. […]
A general note: Flow cytometry measures light scatter and fluorescence of single cells or particles in a stream.

Assay [2] has as its system human neutrophils. The assay is described as follows: Intracellular free Ca^2+ in neutrophils (Fluo-3). The class given is cell-based. Particulars: Figure 9. The protocol: Figure 9 Effects of ODNs and LRR11 on intracellular concentration of free Ca^2+ in neutrophils. Fluo-3 AM-loaded neutrophils (1 × 10^6/mL) were cultured in fibrinogen-coated flat bottom plates in HBSS/HEPES medium supplemented or not with 1 µM LRR11, without additives or in the presence of 1 µM ODNs, at 37 °C, 5% CO2. Fluo-3 fluorescence signals (ex. 485 nm, em. 538 nm) were monitored with 2-min intervals. (A) Values represent the means ± SEM of fluorescence intensity increments in 7 min after the addition of stimulus (n = 3). * p < 0.05, ** p < 0.01, **** p < 0.001 compared with the control, as indicated by two-way ANOVA followed by Sidak’s multiple comparison test. (B) Representative blank corrected Fluo-3 fluorescence kinetic curves for control (square, black solid line), LRR11 (circle, black dotted line), A-CpG (square, red solid line) and LRR11_A-CpG mix (circle, red dotted line).
Intracellular Ca^2+ ions were detected by staining with Fluo-3, which is known to dramatically increase fluorescence after binding of calcium ions, was used. According to the manufacturer’s protocol, human neutrophils were incubated with 5 μM Fluo-3 AM ester (Thermo Fisher Scientific, Waltham, MA, USA) for 60 min at room temperature, followed by washing in PBS. Cells were then seeded in fibrinogen-coated 96-well plates (1 × 10^6/mL of HBSS/HEPES) and incubated at 37 °C in 5% CO2. Changes in fluorescence intensity upon excitation at 485 nm and emission at 538 nm were monitored at CLARIOstar fluorescence microplate reader for at least 60 min after stimulus injection, followed by data analysis using MARS Data Analysis Software, version 3.30 (both hardware and software are from BMG Labtech, Ortenberg, Germany).

Entries after “also recorded” stand apart in the source; their conditions may differ.

The record followed here is publication PMC7961786, “Magic Peptide: Unique Properties of the LRR11 Peptide in the Activation of Leukotriene Synthesis in Human Neutrophils” (International Journal of Molecular Sciences, 2021).

As to “QLRKLNLSFNYQKRVSFAHLSLAPSFGSLV [LRR11, 30 amino acid peptide from leucine-rich repeat of TLR9]”, the “effect of LRR11 on FPS-ZM1 inhibition of ODN internalization” value in assay [1] is “overcomes the inhibitory effect of FPS-ZM1; also recorded: the maximum ODN delivery into cells is observed in the presence of LRR11 and a RAGE antagonist”. Also, in assay [2] (1 µM LRR11 +/- 1 µM ODNs), the “effect of LRR11 on calcium ion influx with/without ODNs” value is on record as “noticeable only in the absence of ODNs”. Besides, the calcium influx result in assay [2] (1 µM LRR11 or 1 µM ODNs, Fluo-3, 37 °C, n = 3) is recorded as “potentiates calcium influx”. In addition, the “time course of cytoplasmic Ca^2+ concentration” value in assay [2] (1 µM LRR11 or 1 µM ODNs) is reported as “ensures long-term maintenance of an increased cytoplasmic Ca^2+ concentration”.
